# Entries after “also recorded” stand apart in the source; their conditions may differ.
# How the values were obtained:
# HEP2 = experiment: CellTiter-Blue cell-based survival/proliferation assay, HEP2; conditions: Homo sapiens, HEp-2; HEP2 head & neck tumor cell line, 48 h
# In short: (§1)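 Tenfold compound dilutions (0–10 μM) were added to 1·10^4 cells/well. Plates incubated 48 h at 37 °C. CellTiter-Blue reduction (4 h, 37 °C) was read as fluorescence at 590 nm, background-corrected with a cell-free blank.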
# HEPG2 = experiment: CellTiter-Blue cell-based survival/proliferation assay, HEPG2; conditions: Homo sapiens; HEPG2 liver tumor cell line, 48 h
# In short: as §1
# DLD1 = experiment: CellTiter-Blue cell-based survival/proliferation assay, DLD1; conditions: Homo sapiens, DLD-1; DLD_1 colorectal tumor cell line, 48 h
# In short: as §1
# OPM2 = experiment: CellTiter-Blue cell-based survival/proliferation assay, OPM2; conditions: Homo sapiens, OPM-2, Myeloma cell line OPM2, 48 h, read-out: Anti-tumoral activity (measured IC50) OPM2
# In short: as §1
# U87MG = experiment: CellTiter-Blue cell-based survival/proliferation assay, U87MG; conditions: Homo sapiens, U-87 MG; U87_MG glioblastoma cell line, 48 h
# Method: (§2) Cell-Based Proliferation Screening of Compounds
# (§3) CellTiter-Blue cell-based survival/proliferation assay (Promega G8080) was performed on tumor cell lines. A total of 1·10^4 cells/well/50 μl were seeded in a 96-wells plate. Treatment was initiated by addition of a 2× drug solution of 1/10 serial dilutions ranging from 0 to 10 μM. Cells were grown for 48 h at 37° C. and then incubated with 10 μl/well of Promega CellTiter-Bleue reagent for 4 h at 37° C. The amount of resorufin dye formed was quantified by its fluorescence emission at 590 nm using a scanning multiwell spectrophotometer (OPTIMA, BMG labtech, France). A blank well without cells was used as a background control for the spectrophotometer.
# TOV112D = experiment: CellTiter-Blue cell-based survival/proliferation assay, TOV112D; conditions: Homo sapiens; TOV112D ovary tumor cell line, 48 h
# In short: as §1
# PANC1 = experiment: CellTiter-Blue cell-based survival/proliferation assay, PANC1; conditions: Homo sapiens, PANC-1; PANC_1 pancreas tumor cell line, 48 h
# In short: as §1
# U118 = experiment: CellTiter-Blue cell-based survival/proliferation assay, U118; conditions: Homo sapiens; U118 glioblastoma cell line, 48 h
# Method: as §2, §3
# HUT78 = experiment: CellTiter-Blue cell-based survival/proliferation assay, HUT78; conditions: Homo sapiens, Lymphoma cell line HUT78, 48 h, read-out: Anti-tumoral activity (measured IC50) HUT78
# In short: as §1
# MDAMB231 = experiment: CellTiter-Blue cell-based survival/proliferation assay, MDAMB231; conditions: Homo sapiens, MDA-MB-231; MDAMB231 breast tumor cell line, 48 h
# In short: as §1
# U2OS = experiment: CellTiter-Blue cell-based survival/proliferation assay, U2OS; conditions: Homo sapiens; U2OS osteosarcoma cell line, 48 h
# Method: as §2, §3
# BT20 = experiment: CellTiter-Blue cell-based survival/proliferation assay, BT20; conditions: Homo sapiens, BT-20; BT20 breast tumor cell line, 48 h
# In short: as §1
# [1] = system: human kinases (456 kinases); experiment: KINOMEscan in vitro kinase profiling; type: binding
# Method: An in vitro kinase profiling was conducted in order to evidence the absence of protein kinase inhibition by the compounds of the invention.
# DiscoveRx (Ambit Biosciences) has developed a high-throughput system (KINOMEscan™) for screening of compounds against large numbers of human kinases (456 kinases).
# The compounds of the invention were screened at the concentration of 1 μM, and results for primary screen binding interactions were reported as percent control (% Ctrl), where lower numbers indicate stronger hits. DMSO is used as a negative control (100% Ctrl) while a high affinity compound is used as a positive control (0% Ctrl). % Ctrl is calculated as follow:
# [formula] Selectivity Score or S-score is a quantitative measure of compound selectivity. It is calculated by dividing the number of kinases that compounds bind to by the total number of distinct kinases tested, excluding mutant variants. S(10)=(number of kinases with % Ctrl<10)/(number of kinases tested), S(1)=(number of kinases with % Ctrl<1)/(number of kinases tested).
# MELWO = experiment: CellTiter-Blue cell-based survival/proliferation assay, MELWO; conditions: Homo sapiens; MEL_WO melanoma cell line, 48 h
# Method: as §2, §3
# AGS = experiment: CellTiter-Blue cell-based survival/proliferation assay, AGS; conditions: Homo sapiens; AGS stomach tumor cell line, 48 h
# In short: as §1
# HCT116 = experiment: CellTiter-Blue cell-based survival/proliferation assay, HCT116; conditions: Homo sapiens, HCT-116; HCT116 colorectal tumor cell line, 48 h
# In short: as §1
# A4513 = experiment: CellTiter-Blue cell-based survival/proliferation assay, A4513; conditions: Homo sapiens; A4513 Ewing cell line, 48 h
# Method: as §2, §3
# REC1 = experiment: CellTiter-Blue cell-based survival/proliferation assay, REC1; conditions: Homo sapiens, Lymphoma cell line REC1, 48 h, read-out: Anti-tumoral activity (measured IC50) REC1
# In short: as §1
# DU145 = experiment: CellTiter-Blue cell-based survival/proliferation assay, DU145; conditions: Homo sapiens, DU-145; DU145 prostate tumor cell line, 48 h
# In short: as §1
# CALU6 = experiment: CellTiter-Blue cell-based survival/proliferation assay, CALU6; conditions: Homo sapiens, Calu-6; CALU6 lung tumor cell line, 48 h
# In short: as §1
# A549 = experiment: CellTiter-Blue cell-based survival/proliferation assay, A549; conditions: Homo sapiens; A549 lung tumor cell line, 48 h
# In short: as §1
# MESSA = experiment: CellTiter-Blue cell-based survival/proliferation assay, MESSA; conditions: Homo sapiens, MES-SA; MESSA ovary tumor cell line, 48 h
# In short: as §1
# A498 = experiment: CellTiter-Blue cell-based survival/proliferation assay, A498; conditions: Homo sapiens; A498 kidney tumor cell line, 48 h
# In short: as §1
# HL60 = experiment: CellTiter-Blue cell-based survival/proliferation assay, HL60; conditions: Homo sapiens, HL-60, Leukemia cell line HL60, 48 h, read-out: Anti-tumoral activity (measured IC50) HL60
# In short: as §1
# PLCPRF5 = experiment: CellTiter-Blue cell-based survival/proliferation assay, PLCPRF5; conditions: Homo sapiens, PLC-PRF-5; PLC_PRF5 liver tumor cell line, 48 h
# In short: as §1
# SW579 = experiment: CellTiter-Blue cell-based survival/proliferation assay, SW579; conditions: Homo sapiens; SW579 head & neck tumor cell line, 48 h
# In short: as §1
# HGC27 = experiment: CellTiter-Blue cell-based survival/proliferation assay, HGC27; conditions: Homo sapiens, HGC-27; HGC27 stomach tumor cell line, 48 h
# In short: as §1
# CLS354 = experiment: CellTiter-Blue cell-based survival/proliferation assay, CLS354; conditions: Homo sapiens, CLS-354; CLS354_4 head & neck tumor cell line, 48 h
# In short: as §1
# PC3 = experiment: CellTiter-Blue cell-based survival/proliferation assay, PC3; conditions: Homo sapiens, PC-3; PC3 prostate tumor cell line, 48 h
# In short: as §1
# KARPAS299 = experiment: CellTiter-Blue cell-based survival/proliferation assay, KARPAS299; conditions: Homo sapiens, KARPAS-299, Lymphoma cell line KARPAS299, 48 h, read-out: Anti-tumoral activity (measured IC50) KARPAS299
# In short: as §1
# A375 = experiment: CellTiter-Blue cell-based survival/proliferation assay, A375; conditions: Homo sapiens, A-375; A375 melanoma cell line, 48 h
# Method: as §2, §3
# H1299 = experiment: CellTiter-Blue cell-based survival/proliferation assay, H1299; conditions: Homo sapiens, NCI-H1299; H1299 lung tumor cell line, 48 h
# In short: as §1
# BXPC3 = experiment: CellTiter-Blue cell-based survival/proliferation assay, BXPC3; conditions: Homo sapiens, BXPC-3; BXPC3 pancreas tumor cell line, 48 h
# In short: as §1
# ACHN = experiment: CellTiter-Blue cell-based survival/proliferation assay, ACHN; conditions: Homo sapiens; ACHN kidney tumor cell line, 48 h
# In short: as §1
SMILES,IC50 (HEP2) [nM],IC50 (HEPG2) [nM],IC50 (DLD1) [nM],IC50 (OPM2) [nM],IC50 (U87MG) [nM],IC50 (TOV112D) [nM],IC50 (PANC1) [nM],IC50 (U118) [nM],IC50 (HUT78) [nM],IC50 (MDAMB231) [nM],IC50 (U2OS) [nM],IC50 (BT20) [nM],IC50 (MELWO) [nM],IC50 (AGS) [nM],IC50 (HCT116) [nM],IC50 (A4513) [nM],IC50 (REC1) [nM],IC50 (DU145) [nM],IC50 (CALU6) [nM],IC50 (A549) [nM],also measured
"CCOCc1ccc(C)c(Nc2nc(-c3ccc(N4CCNC4=O)cc3)cs2)c1 [Example 003, 1-{4-[2-(5-Ethoxymethyl-(2-methyl-phenylamino))-thiazol-4-yl]-phenyl}-imidazolidin-2-one]",> 1000,> 1000,≤ 100,≤ 100,> 1000,≤ 100,> 1000,> 1000,≤ 100,≤ 100,> 1000,> 1000,≤ 100,> 1000,500 to 1000,≤ 100,≤ 100,> 1000,> 1000,> 1000,"Interaction with the 456 kinases tested ([1]; screened at 1 μM): do not efficiently interact; Number of hits/number of kinases, S1 ([1]; tested at 1 μM, S(1): kinases with % Ctrl<1): 1/456; S-score, S1 ([1]; tested at 1 μM, S(1)=(number of kinases with % Ctrl<1)/(number of kinases tested)): 0.002; Number of hits/number of kinases, S10 ([1]; tested at 1 μM, S(10): kinases with % Ctrl<10): 4/456; S-score, S10 ([1]; tested at 1 μM, S(10)=(number of kinases with % Ctrl<10)/(number of kinases tested)): 0.009; Kinase targets, S1 ([1]; tested at 1 μM, kinases with % Ctrl<1): PDGFRB; Kinase targets, S10 ([1]; tested at 1 μM, kinases with % Ctrl<10): KIT, KIT V559D,; also recorded: KIT L576P; IC50 (MESSA): 100 to 500 nM; IC50 (A498): ≤ 100 nM; IC50 (HL60): ≤ 100 nM; IC50 (PLCPRF5): > 1000 nM; IC50 (SW579): > 1000 nM; IC50 (HGC27): > 1000 nM; IC50 (CLS354): ≤ 100 nM; IC50 (PC3): ≤ 100 nM; IC50 (KARPAS299): ≤ 100 nM; IC50 (A375): ≤ 100 nM; IC50 (H1299): > 1000 nM; IC50 (BXPC3): ≤ 100 nM; IC50 (ACHN): ≤ 100 nM"
"Cc1ccc(CO)cc1Nc1nc(-c2ccc(-n3cccn3)cc2)cs1 [Example 016, {4-Methyl-3-[4-(4-pyrazol-1-yl-phenyl)-thiazol-2-ylamino]-phenyl}-methanol]",> 1000,> 1000,> 1000,> 1000,> 1000,> 1000,> 1000,> 1000,> 1000,> 1000,> 1000,> 1000,> 1000,> 1000,> 1000,> 1000,> 1000,> 1000,> 1000,> 1000,IC50 (MESSA): > 1000 nM; IC50 (A498): > 1000 nM; IC50 (HL60): > 1000 nM; IC50 (PLCPRF5): > 1000 nM; IC50 (SW579): > 1000 nM; IC50 (HGC27): > 1000 nM; IC50 (CLS354): > 1000 nM; IC50 (PC3): > 1000 nM; IC50 (KARPAS299): > 1000 nM; IC50 (A375): > 1000 nM; IC50 (H1299): > 1000 nM; IC50 (BXPC3): > 1000 nM; IC50 (ACHN): > 1000 nM
"CCOCc1ccc(C)c(Nc2nc(-c3ccc(-n4ccnc4)cc3)cs2)c1 [Example 017, (5-Ethoxymethyl-2-methyl-phenyl)-[4-(4-imidazol-1-yl-phenyl)-thiazol-2-yl]-amine]",> 1000,> 1000,> 1000,> 1000,> 1000,> 1000,> 1000,> 1000,> 1000,> 1000,> 1000,> 1000,> 1000,> 1000,> 1000,> 1000,> 1000,> 1000,> 1000,> 1000,IC50 (MESSA): > 1000 nM; IC50 (A498): > 1000 nM; IC50 (HL60): > 1000 nM; IC50 (PLCPRF5): > 1000 nM; IC50 (SW579): > 1000 nM; IC50 (HGC27): > 1000 nM; IC50 (CLS354): > 1000 nM; IC50 (PC3): > 1000 nM; IC50 (KARPAS299): > 1000 nM; IC50 (A375): > 1000 nM; IC50 (H1299): > 1000 nM; IC50 (BXPC3): > 1000 nM; IC50 (ACHN): > 1000 nM
"CCOCc1cc(C)cc(Nc2nc(-c3ccc(N4CCNC4=O)cc3)cs2)c1 [Example 018, 1-{4-[2-(3-Ethoxymethyl-(5-methyl-phenylamino))-thiazol-4-yl]-phenyl}-imidazolidin-2-one]",≤ 100,> 1000,> 1000,≤ 100,> 1000,≤ 100,> 1000,> 1000,≤ 100,> 1000,100 to 500,> 1000,> 1000,> 1000,100 to 500,≤ 100,≤ 100,> 1000,> 1000,≤ 100,IC50 (MESSA): > 1000 nM; IC50 (A498): 500 to 1000 nM; IC50 (HL60): ≤ 100 nM; IC50 (PLCPRF5): > 1000 nM; IC50 (SW579): > 1000 nM; IC50 (HGC27): 500 to 1000 nM; IC50 (CLS354): ≤ 100 nM; IC50 (PC3): > 1000 nM; IC50 (KARPAS299): ≤ 100 nM; IC50 (A375): ≤ 100 nM; IC50 (H1299): > 1000 nM; IC50 (BXPC3): > 1000 nM; IC50 (ACHN): 500 to 1000 nM

# Source: patent US10570122B2, “Compounds with anti-tumoral activity” (AB Science, priority 2015, dated 2020)
